Source: the NIST ThermoML archive (doi:10.1021/je900596d)
Numbers after ± are expanded uncertainties.

Settings: for mass density: Vibrating tube method

FC(F)=C(F)C(F)(F)F [hexafluoropropene]
Settings	mass density [kg/m3]	vapor or sublimation pressure [kPa]
283.17 K, 6464.6 kPa, Liquid	1420.83 ± 1.4	–
283.17 K, 6531.5 kPa, Liquid	1421.22 ± 1.5	–
283.17 K, 6599.8 kPa, Liquid	1421.62 ± 1.5	–
283.17 K, 6668.2 kPa, Liquid	1422.01 ± 1.5	–
283.17 K, 6734.8 kPa, Liquid	1422.36 ± 1.5	–
283.17 K, 6802 kPa, Liquid	1422.82 ± 1.5	–
283.17 K, 6878.8 kPa, Liquid	1423.17 ± 1.5	–
283.17 K, 6945.1 kPa, Liquid	1423.6 ± 1.5	–
283.17 K, 7018.8 kPa, Liquid	1423.92 ± 1.5	–
283.17 K, 7085.3 kPa, Liquid	1424.29 ± 1.5	–
283.17 K, 7154.4 kPa, Liquid	1424.62 ± 1.5	–
283.17 K, 7220.3 kPa, Liquid	1425.09 ± 1.5	–
283.17 K, 7293 kPa, Liquid	1425.48 ± 1.5	–
283.17 K, 7359.6 kPa, Liquid	1425.9 ± 1.5	–
283.17 K, 7428.2 kPa, Liquid	1426.22 ± 1.5	–
283.17 K, 7493.3 kPa, Liquid	1426.61 ± 1.5	–
283.17 K, 7562.9 kPa, Liquid	1426.95 ± 1.5	–
283.17 K, 7634.7 kPa, Liquid	1427.34 ± 1.5	–
283.17 K, 7780.3 kPa, Liquid	1428.05 ± 1.5	–
283.17 K, 7854.7 kPa, Liquid	1428.44 ± 1.5	–
283.17 K, 7922.9 kPa, Liquid	1428.82 ± 1.5	–
283.17 K, 7991.9 kPa, Liquid	1429.21 ± 1.5	–
283.17 K, 8053 kPa, Liquid	1429.55 ± 1.5	–
283.17 K, 8093.3 kPa, Liquid	1429.79 ± 1.5	–
283.17 K, 8134.7 kPa, Liquid	1429.94 ± 1.5	–
283.17 K, 8175.7 kPa, Liquid	1430.23 ± 1.5	–
283.17 K, 8222.2 kPa, Liquid	1430.51 ± 1.5	–
283.17 K, 8262.6 kPa, Liquid	1430.66 ± 1.5	–
283.17 K, 8310.9 kPa, Liquid	1430.87 ± 1.5	–
283.17 K, 8353.2 kPa, Liquid	1431.08 ± 1.5	–
283.17 K, 8393.4 kPa, Liquid	1431.32 ± 1.5	–
283.17 K, 8434 kPa, Liquid	1431.55 ± 1.5	–
283.17 K, 8474.2 kPa, Liquid	1431.73 ± 1.5	–
283.17 K, 8517.4 kPa, Liquid	1432.02 ± 1.5	–
283.17 K, 8563.4 kPa, Liquid	1432.23 ± 1.5	–
283.17 K, 8609.7 kPa, Liquid	1432.53 ± 1.5	–
283.17 K, 8651.7 kPa, Liquid	1432.69 ± 1.5	–
283.17 K, 8693.8 kPa, Liquid	1432.88 ± 1.5	–
283.17 K, 8735.7 kPa, Liquid	1433.12 ± 1.5	–
283.17 K, 8779.9 kPa, Liquid	1433.38 ± 1.5	–
283.17 K, 8821.1 kPa, Liquid	1433.52 ± 1.5	–
283.17 K, 8871.9 kPa, Liquid	1433.93 ± 1.5	–
283.17 K, 8912.3 kPa, Liquid	1434 ± 1.5	–
283.17 K, 8953.6 kPa, Liquid	1434.33 ± 1.5	–
283.17 K, 8996.5 kPa, Liquid	1434.45 ± 1.5	–
283.17 K, 9044.1 kPa, Liquid	1434.75 ± 1.5	–
283.17 K, 9090.4 kPa, Liquid	1435.02 ± 1.5	–
283.17 K, 9132.2 kPa, Liquid	1435.25 ± 1.5	–
283.17 K, 9176.2 kPa, Liquid	1435.35 ± 1.5	–
283.17 K, 9217 kPa, Liquid	1435.66 ± 1.5	–
283.17 K, 9261 kPa, Liquid	1435.85 ± 1.5	–
283.17 K, 9303.9 kPa, Liquid	1436.08 ± 1.5	–
283.17 K, 9347.1 kPa, Liquid	1436.32 ± 1.5	–
283.17 K, 9392.3 kPa, Liquid	1436.51 ± 1.5	–
283.17 K, 9439 kPa, Liquid	1436.78 ± 1.5	–
283.17 K, 9480.9 kPa, Liquid	1436.91 ± 1.5	–
283.17 K, 9522.3 kPa, Liquid	1437.19 ± 1.5	–
283.17 K, 9569.5 kPa, Liquid	1437.37 ± 1.5	–
283.17 K, 9612.2 kPa, Liquid	1437.57 ± 1.5	–
283.17 K, 9656.4 kPa, Liquid	1437.81 ± 1.5	–
283.17 K, 9696.9 kPa, Liquid	1438.08 ± 1.5	–
283.17 K, 9737.5 kPa, Liquid	1438.29 ± 1.5	–
283.17 K, 9778 kPa, Liquid	1438.42 ± 1.5	–
283.17 K, 9820 kPa, Liquid	1438.63 ± 1.5	–
283.17 K, 9860.9 kPa, Liquid	1438.96 ± 1.5	–
283.17 K, 9908.7 kPa, Liquid	1439.08 ± 1.5	–
283.17 K, 9991.1 kPa, Liquid	1439.48 ± 1.5	–
283.23 K, Liquid, Closed cell (Static) method	–	459 ± 1.3
283.24 K, 3.6 kPa, Fluid (supercritical or subcritical phases)	0.14 ± 0.03	–
283.24 K, 4 kPa, Fluid (supercritical or subcritical phases)	0.18 ± 0.03	–
283.24 K, 4.5 kPa, Fluid (supercritical or subcritical phases)	0.18 ± 0.03	–
283.24 K, 5.1 kPa, Fluid (supercritical or subcritical phases)	0.27 ± 0.03	–
283.24 K, 6 kPa, Fluid (supercritical or subcritical phases)	0.3 ± 0.03	–
283.24 K, 7.2 kPa, Fluid (supercritical or subcritical phases)	0.31 ± 0.03	–
283.24 K, 8.2 kPa, Fluid (supercritical or subcritical phases)	0.4 ± 0.03	–
283.24 K, 9.1 kPa, Fluid (supercritical or subcritical phases)	0.47 ± 0.03	–
283.24 K, 9.8 kPa, Fluid (supercritical or subcritical phases)	0.52 ± 0.03	–
283.24 K, 10.8 kPa, Fluid (supercritical or subcritical phases)	0.56 ± 0.03	–
283.24 K, 11.8 kPa, Fluid (supercritical or subcritical phases)	0.65 ± 0.03	–
283.24 K, 12.6 kPa, Fluid (supercritical or subcritical phases)	0.7 ± 0.03	–
283.24 K, 13.4 kPa, Fluid (supercritical or subcritical phases)	0.85 ± 0.03	–
283.24 K, 14.4 kPa, Fluid (supercritical or subcritical phases)	0.85 ± 0.03	–
283.24 K, 15.2 kPa, Fluid (supercritical or subcritical phases)	0.87 ± 0.03	–
283.24 K, 16 kPa, Fluid (supercritical or subcritical phases)	0.88 ± 0.03	–
283.24 K, 17 kPa, Fluid (supercritical or subcritical phases)	0.98 ± 0.03	–
283.24 K, 18.1 kPa, Fluid (supercritical or subcritical phases)	1.01 ± 0.03	–
283.24 K, 19.2 kPa, Fluid (supercritical or subcritical phases)	1.12 ± 0.03	–
283.24 K, 20.3 kPa, Fluid (supercritical or subcritical phases)	1.19 ± 0.03	–
283.24 K, 21.5 kPa, Fluid (supercritical or subcritical phases)	1.25 ± 0.03	–
283.24 K, 22.7 kPa, Fluid (supercritical or subcritical phases)	1.31 ± 0.03	–
283.24 K, 23.9 kPa, Fluid (supercritical or subcritical phases)	1.47 ± 0.03	–
283.24 K, 25.1 kPa, Fluid (supercritical or subcritical phases)	1.47 ± 0.03	–
283.24 K, 26.3 kPa, Fluid (supercritical or subcritical phases)	1.57 ± 0.03	–
283.24 K, 27.6 kPa, Fluid (supercritical or subcritical phases)	1.66 ± 0.03	–
283.24 K, 28.8 kPa, Fluid (supercritical or subcritical phases)	1.74 ± 0.03	–
283.24 K, 30 kPa, Fluid (supercritical or subcritical phases)	1.8 ± 0.03	–
283.24 K, 31.2 kPa, Fluid (supercritical or subcritical phases)	1.87 ± 0.03	–
283.24 K, 32.6 kPa, Fluid (supercritical or subcritical phases)	1.92 ± 0.03	–
283.24 K, 33.8 kPa, Fluid (supercritical or subcritical phases)	2.04 ± 0.03	–
283.24 K, 35.1 kPa, Fluid (supercritical or subcritical phases)	2.16 ± 0.03	–
283.24 K, 36.3 kPa, Fluid (supercritical or subcritical phases)	2.23 ± 0.03	–
283.24 K, 37.6 kPa, Fluid (supercritical or subcritical phases)	2.25 ± 0.03	–
283.24 K, 38.8 kPa, Fluid (supercritical or subcritical phases)	2.33 ± 0.03	–
283.24 K, 40.1 kPa, Fluid (supercritical or subcritical phases)	2.39 ± 0.03	–
283.24 K, 41.4 kPa, Fluid (supercritical or subcritical phases)	2.51 ± 0.03	–
283.24 K, 42.6 kPa, Fluid (supercritical or subcritical phases)	2.65 ± 0.03	–
283.24 K, 43.9 kPa, Fluid (supercritical or subcritical phases)	2.74 ± 0.03	–
283.24 K, 45.1 kPa, Fluid (supercritical or subcritical phases)	2.76 ± 0.03	–
283.24 K, 46.4 kPa, Fluid (supercritical or subcritical phases)	2.84 ± 0.03	–
283.24 K, 47.7 kPa, Fluid (supercritical or subcritical phases)	2.93 ± 0.03	–
283.24 K, 49 kPa, Fluid (supercritical or subcritical phases)	3.04 ± 0.03	–
283.24 K, 50.2 kPa, Fluid (supercritical or subcritical phases)	3.09 ± 0.03	–
283.24 K, 52.8 kPa, Fluid (supercritical or subcritical phases)	3.28 ± 0.03	–
283.24 K, 55.4 kPa, Fluid (supercritical or subcritical phases)	3.44 ± 0.03	–
283.24 K, 58.1 kPa, Fluid (supercritical or subcritical phases)	3.61 ± 0.03	–
283.24 K, 60.8 kPa, Fluid (supercritical or subcritical phases)	3.81 ± 0.03	–
283.24 K, 63.5 kPa, Fluid (supercritical or subcritical phases)	3.98 ± 0.03	–
283.24 K, 69.3 kPa, Fluid (supercritical or subcritical phases)	4.38 ± 0.03	–
283.24 K, 72.2 kPa, Fluid (supercritical or subcritical phases)	4.52 ± 0.03	–
283.24 K, 75.2 kPa, Fluid (supercritical or subcritical phases)	4.75 ± 0.03	–
283.24 K, 78.1 kPa, Fluid (supercritical or subcritical phases)	4.95 ± 0.03	–
283.24 K, 81.2 kPa, Fluid (supercritical or subcritical phases)	5.2 ± 0.03	–
283.24 K, 84.2 kPa, Fluid (supercritical or subcritical phases)	5.34 ± 0.03	–
283.24 K, 87.2 kPa, Fluid (supercritical or subcritical phases)	5.58 ± 0.03	–
283.24 K, 90.3 kPa, Fluid (supercritical or subcritical phases)	5.77 ± 0.03	–
283.24 K, 93.4 kPa, Fluid (supercritical or subcritical phases)	6 ± 0.03	–
283.24 K, 96.5 kPa, Fluid (supercritical or subcritical phases)	6.19 ± 0.03	–
283.24 K, 99.6 kPa, Fluid (supercritical or subcritical phases)	6.44 ± 0.03	–
283.24 K, 102 kPa, Fluid (supercritical or subcritical phases)	6.55 ± 0.03	–
283.24 K, 104.4 kPa, Fluid (supercritical or subcritical phases)	6.69 ± 0.03	–
283.24 K, 106.7 kPa, Fluid (supercritical or subcritical phases)	6.88 ± 0.03	–
283.24 K, 109.2 kPa, Fluid (supercritical or subcritical phases)	7.05 ± 0.03	–
283.24 K, 111.6 kPa, Fluid (supercritical or subcritical phases)	7.23 ± 0.03	–
